Results: PubChem BioAssay (NCI)
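Method: 48-hour compound exposure of cells in 96-well plates, five concentrations, linear interpolation of endpoints. TGI is the concentration that stops growth completely.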

Experiments:
Test in all cases: growth of human tumour cells (NCI), 48 h
M14 melanoma = test system: M14 melanoma
CAKI-1 renal = test system: CAKI-1 renal
SNB-19 CNS = test system: SNB-19 CNS
786-0 renal = test system: 786-0 renal
SN12C renal = test system: SN12C renal
SK-OV-3 ovarian = test system: SK-OV-3 ovarian
LOX IMVI melanoma = test system: LOX IMVI melanoma
SNB-78 CNS = test system: SNB-78 CNS
NCI-H226 lung = test system: NCI-H226 lung
CCRF-CEM leukemia = test system: CCRF-CEM leukemia
HT29 colon = test system: HT29 colon
NCI-H460 lung = test system: NCI-H460 lung
MALME-3M melanoma = test system: MALME-3M melanoma
RXF-631 renal = test system: RXF-631 renal
MOLT-4 leukemia = test system: MOLT-4 leukemia
EKVX NSCLC = test system: EKVX NSCLC
HCT-116 colon = test system: HCT-116 colon
SK-MEL-5 melanoma = test system: SK-MEL-5 melanoma
IGROV1 ovarian = test system: IGROV1 ovarian
HCT-15 colon = test system: HCT-15 colon
DMS 273 small cell lung = test system: DMS 273 small cell lung
UACC-62 melanoma = test system: UACC-62 melanoma
LXFL 529 NSCLC = test system: LXFL 529 NSCLC
TK-10 renal = test system: TK-10 renal
COLO 205 colon = test system: COLO 205 colon
M19-MEL melanoma = test system: M19-MEL melanoma
OVCAR-3 ovarian = test system: OVCAR-3 ovarian
HL-60(TB) leukemia = test system: HL-60(TB) leukemia
SF-268 CNS = test system: SF-268 CNS
OVCAR-4 ovarian = test system: OVCAR-4 ovarian
NCI-H522 lung = test system: NCI-H522 lung
UO-31 renal = test system: UO-31 renal
NCI-H23 lung = test system: NCI-H23 lung
SR leukemia = test system: SR leukemia
OVCAR-8 ovarian = test system: OVCAR-8 ovarian
HCC-2998 colon = test system: HCC-2998 colon
ACHN renal = test system: ACHN renal
OVCAR-5 ovarian = test system: OVCAR-5 ovarian
SF-539 CNS = test system: SF-539 CNS
HOP-18 NSCLC = test system: HOP-18 NSCLC
K-562 leukemia = test system: K-562 leukemia
A549 NSCLC = test system: A549 NSCLC
A498 renal = test system: A498 renal
U251 CNS = test system: U251 CNS
SF-295 CNS = test system: SF-295 CNS
KM20L2 colon = test system: KM20L2 colon
HOP-62 NSCLC = test system: HOP-62 NSCLC
KM12 colon = test system: KM12 colon
DMS 114 small cell lung = test system: DMS 114 small cell lung
UACC-257 melanoma = test system: UACC-257 melanoma
HOP-92 NSCLC = test system: HOP-92 NSCLC
SK-MEL-28 melanoma = test system: SK-MEL-28 melanoma
RPMI-8226 leukemia = test system: RPMI-8226 leukemia
DLD-1 colon = test system: DLD-1 colon
XF 498 CNS = test system: XF 498 CNS
SK-MEL-2 melanoma = test system: SK-MEL-2 melanoma
RXF 393 renal = test system: RXF 393 renal
SNB-75 CNS = test system: SNB-75 CNS
SW-620 colon = test system: SW-620 colon

CCOc1ccc2nc(NC(=O)C(=O)C(C#N)CC(C)(C)C=O)sc2c1 (centres undefined)
TGI (M14 melanoma): > 100 µM
TGI (CAKI-1 renal): > 100 µM
TGI (SNB-19 CNS): > 100 µM
TGI (786-0 renal): > 100 µM
TGI (SN12C renal): > 100 µM
TGI (SK-OV-3 ovarian): > 100 µM
TGI (LOX IMVI melanoma): > 100 µM
TGI (SNB-78 CNS): > 100 µM
TGI (NCI-H226 lung): > 100 µM
TGI (CCRF-CEM leukemia): 63.1 µM
TGI (HT29 colon): > 100 µM
TGI (NCI-H460 lung): > 100 µM
TGI (MALME-3M melanoma): > 100 µM
TGI (RXF-631 renal): > 100 µM
TGI (MOLT-4 leukemia): > 100 µM
TGI (EKVX NSCLC): > 100 µM
TGI (HCT-116 colon): > 100 µM
TGI (SK-MEL-5 melanoma): > 100 µM
TGI (IGROV1 ovarian): > 100 µM
TGI (HCT-15 colon): > 100 µM
TGI (DMS 273 small cell lung): 51.5 µM
TGI (UACC-62 melanoma): > 100 µM
TGI (LXFL 529 NSCLC): > 100 µM
TGI (TK-10 renal): > 100 µM
TGI (COLO 205 colon): > 100 µM
TGI (M19-MEL melanoma): > 100 µM
TGI (OVCAR-3 ovarian): > 100 µM
TGI (HL-60(TB) leukemia): > 100 µM
TGI (SF-268 CNS): > 100 µM
TGI (OVCAR-4 ovarian): > 100 µM
TGI (NCI-H522 lung): > 100 µM
TGI (UO-31 renal): > 100 µM
TGI (NCI-H23 lung): > 100 µM
TGI (SR leukemia): 46 µM
TGI (OVCAR-8 ovarian): > 100 µM
TGI (HCC-2998 colon): > 100 µM
TGI (ACHN renal): > 100 µM
TGI (OVCAR-5 ovarian): > 100 µM
TGI (SF-539 CNS): > 100 µM
TGI (HOP-18 NSCLC): > 100 µM
TGI (K-562 leukemia): > 100 µM
TGI (A549 NSCLC): > 100 µM
TGI (A498 renal): > 100 µM
TGI (U251 CNS): > 100 µM
TGI (SF-295 CNS): > 100 µM
TGI (KM20L2 colon): > 100 µM
TGI (HOP-62 NSCLC): > 100 µM
TGI (KM12 colon): > 100 µM
TGI (DMS 114 small cell lung): > 100 µM
TGI (UACC-257 melanoma): > 100 µM
TGI (HOP-92 NSCLC): > 100 µM
TGI (SK-MEL-28 melanoma): > 100 µM
TGI (RPMI-8226 leukemia): > 100 µM
TGI (DLD-1 colon): > 100 µM
TGI (XF 498 CNS): > 100 µM
TGI (SK-MEL-2 melanoma): > 100 µM
TGI (RXF 393 renal): > 100 µM
TGI (SNB-75 CNS): > 100 µM

CCCCCCCCCCC(O)CCCCCCC(=O)O (centres undefined)
TGI (M14 melanoma): 44.3 µM
TGI (CAKI-1 renal): > 100 µM
TGI (SNB-19 CNS): > 100 µM
TGI (786-0 renal): 93.3 µM
TGI (SN12C renal): 50.7 µM
TGI (SK-OV-3 ovarian): > 100 µM
TGI (LOX IMVI melanoma): 31.1 µM
TGI (SW-620 colon): 86.5 µM
TGI (SNB-78 CNS): > 100 µM
TGI (NCI-H226 lung): > 100 µM
TGI (CCRF-CEM leukemia): 91.3 µM
TGI (HT29 colon): 40.6 µM
TGI (NCI-H460 lung): 32.4 µM
TGI (MALME-3M melanoma): 59.5 µM
TGI (RXF-631 renal): 39.1 µM
TGI (MOLT-4 leukemia): 34.5 µM
TGI (EKVX NSCLC): > 100 µM
TGI (HCT-116 colon): 33.3 µM
TGI (SK-MEL-5 melanoma): 29.9 µM
TGI (IGROV1 ovarian): 34.6 µM
TGI (DMS 273 small cell lung): 55.6 µM
TGI (UACC-62 melanoma): 41.7 µM
TGI (LXFL 529 NSCLC): 71 µM
TGI (TK-10 renal): > 100 µM
TGI (COLO 205 colon): 30 µM
TGI (M19-MEL melanoma): > 100 µM
TGI (OVCAR-3 ovarian): 45.3 µM
TGI (HL-60(TB) leukemia): 25.6 µM
TGI (SF-268 CNS): > 100 µM
TGI (OVCAR-4 ovarian): > 100 µM
TGI (NCI-H522 lung): 62.5 µM
TGI (UO-31 renal): > 100 µM
TGI (NCI-H23 lung): > 100 µM
TGI (SR leukemia): 41.9 µM
TGI (OVCAR-8 ovarian): 31.1 µM
TGI (ACHN renal): 54 µM
TGI (OVCAR-5 ovarian): > 100 µM
TGI (SF-539 CNS): 67.3 µM
TGI (HOP-18 NSCLC): 63 µM
TGI (K-562 leukemia): 39.1 µM
TGI (A549 NSCLC): 54.7 µM
TGI (A498 renal): 46.1 µM
TGI (U251 CNS): 45.8 µM
TGI (SF-295 CNS): 80.8 µM
TGI (HOP-62 NSCLC): > 100 µM
TGI (KM12 colon): 31.6 µM
TGI (DMS 114 small cell lung): 56.2 µM
TGI (UACC-257 melanoma): > 100 µM
TGI (HOP-92 NSCLC): 37.3 µM
TGI (SK-MEL-28 melanoma): > 100 µM
TGI (RPMI-8226 leukemia): 28.2 µM
TGI (DLD-1 colon): 59.7 µM
TGI (XF 498 CNS): 88.9 µM
TGI (SK-MEL-2 melanoma): > 100 µM
TGI (RXF 393 renal): 98 µM
TGI (SNB-75 CNS): > 100 µM
